The source of these data is ChEMBL document CHEMBL1142430, “Acremine G, dimeric metabolite from cultures of Acremonium byssoides A20” (J Nat Prod, 2008).

Structures are written as SMILES.

In general, IC50 refers to the midpoint of a concentration-inhibition curve. Higher therefore signals a need for much substance. A word on the inhibition: it is the drop in the measured response relative to a control, in per cent. Low readings indicate a response near the control, high ones a response far below the control.

The subject of one assay is NCI-H460. The assay is described as follows: Cytotoxicity against human H460 cells. It counts as functional, cell-based.
A further assay concerns Plasmopara viticola. The assay is described as follows: Inhibition of germination of sporangia of Plasmopara viticola at 1 mM. The assay is classed as functional.

In the assay on NCI-H460, `CC1=CC2c3cc(O)c(C)cc3OC3(C1)C(=O)C(C)=CC(=O)C23/C=C/C(C)(C)O` (racemic) displayed an IC50 of 48 µM. In the assay on Plasmopara viticola, at 1000 µM the inhibition was 72.5%.
`CC(C)(O)/C=C/C1=CC(=O)[C@](C)(O)C[C@@H]1O` [ACREMINE A] showed a half-maximal inhibitory concentration (IC50) in the assay with NCI-H460 of more than 100 µM. In the assay on Plasmopara viticola, the inhibition at 1000 µM was 58.2%.
The like results for `CC(C)(O)/C=C/C1=CC(=O)[C@](C)(O)CC1=O` [ACREMINE B] were, in that order, 36 µM and 57.7%.
